From the supplement of paper PMC10307832

Assays:
Assay in all cases: relative viability (nuclei count vs DMSO), 5 days (fraction); higher = more cells survive
[1] = compound: CCN(CCO)CCCC(C)Nc1ccnc2cc(Cl)ccc12 [Hydroxychloroquine] + CS(=O)(=O)CCNCc1ccc(-c2ccc3ncnc(Nc4ccc(OCc5cccc(F)c5)c(Cl)c4)c3c2)o1 [Lapatinib] (partner 2 µM)
Outline: (§1)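 Dosing by pin tool came one day after lung cancer cell lines were seeded in 1536-well plates, using either one drug or a fixed anchor-drug dose plus five library-drug doses (not always all listed) in √10 steps. After 5 days, nuclei were counted on 4× images. Relative viability is treated-well nuclei count divided by vehicle-well nuclei count, and values are medians of duplicate plates.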

[2] = compound: CCN(CCO)CCCC(C)Nc1ccnc2cc(Cl)ccc12 [Hydroxychloroquine] + NC(=O)Nc1cc(-c2cccc(F)c2)sc1C(=O)N[C@H]1CCCNC1 [AZD7762] (partner 0.2 µM)
Outline: as §1

[3] = compound: CCN(CCO)CCCC(C)Nc1ccnc2cc(Cl)ccc12 [Hydroxychloroquine] + Nc1ncn([C@H]2C[C@H](O)[C@@H](CO)O2)c(=O)n1 [Decitabine] (partner 2 µM)
Outline: as §1

[4] = compound: CCN(CCO)CCCC(C)Nc1ccnc2cc(Cl)ccc12 [Hydroxychloroquine] + O=C(c1cc(Cc2n[nH]c(=O)c3ccccc23)ccc1F)N1CCN(C(=O)C2CC2)CC1 [Olaparib] (partner 8 µM)
Outline: as §1

| Cell Line | relative viability ([1]; first compound 0.5 µM) | relative viability ([1]; first compound 1.581 µM) | relative viability ([1]; first compound 5 µM) | relative viability ([1]; first compound 15.81 µM) | relative viability ([1]; first compound 50 µM) | relative viability ([2]; first compound 0.5 µM) | relative viability ([2]; first compound 1.581 µM) | relative viability ([2]; first compound 5 µM) | relative viability ([2]; first compound 15.81 µM) | relative viability ([2]; first compound 50 µM) | relative viability ([3]; first compound 0.5 µM) | relative viability ([3]; first compound 1.581 µM) | relative viability ([3]; first compound 5 µM) | relative viability ([3]; first compound 15.81 µM) | relative viability ([3]; first compound 50 µM) | relative viability ([4]; first compound 0.5 µM) | relative viability ([4]; first compound 1.581 µM) | relative viability ([4]; first compound 5 µM) | relative viability ([4]; first compound 15.81 µM) | relative viability ([4]; first compound 50 µM) |
| --- | --- | --- | --- | --- | --- | --- | --- | --- | --- | --- | --- | --- | --- | --- | --- | --- | --- | --- | --- | --- |
| LCLC-97TM1 | 0.926 | 1.27 | 0.928 | 1.1 | 1.03 | 0.373 | 0.499 | 0.245 | 0.119 | 0.363 | 0.217 | 0.247 | 0.276 | 0.274 | 0.189 | 0.529 | 0.371 | 0.324 | 0.453 | 0.29 |
| LK-2 | 0.918 | 0.947 | 0.883 | 1.03 | 1.04 | 0.424 | 0.334 | 0.447 | 0.411 | 0.312 | 0.308 | 0.297 | 0.36 | 0.268 | 0.284 | 0.734 | 0.719 | 0.659 | 0.648 | 0.874 |
| LOU-NH91 | 0.759 | 0.591 | 0.776 | 0.754 | 0.738 | 0.762 | 0.646 | 0.776 | 0.744 | 0.828 | 0.761 | 0.732 | 0.833 | 0.83 | 0.824 | 0.945 | 0.846 | 0.888 | 0.869 | 0.961 |
| LU99A | 1.05 | 0.937 | 0.871 | 1.08 | 1.01 | 0.427 | 0.367 | 0.533 | 0.393 | 0.317 | 0.864 | 0.795 | 0.877 | 1.01 | 1.01 | 0.261 | 0.265 | 0.228 | 0.299 | 0.254 |
| LXF-289 | 0.868 | 0.906 | 0.911 | 0.848 | 0.891 | 1.01 | 1.08 | 1.05 | 1.06 | 1.17 | 0.411 | 0.395 | 0.338 | 0.366 | 0.357 | 1.07 | 1.06 | 1.07 | 1.15 | 1.16 |
| NCI-H23 | 1.08 | 0.915 | 0.957 | 1.22 | 1.1 | 0.263 | 0.355 | 0.21 | 0.271 | 0.248 | 0.321 | 0.294 | 0.288 | 0.288 | 0.305 | 0.365 | 0.36 | 0.322 | 0.309 | 0.204 |
| NCI-H322M | 0.557 | 0.642 | 0.554 | 0.619 | 0.634 | 0.681 | 0.433 | 0.447 | 0.487 | 0.482 | 0.66 | 0.698 | 0.732 | 0.665 | 0.637 | 0.741 | 0.75 | 0.753 | 0.725 | 0.751 |
| NCI-H358 | 0.487 | 0.432 | 0.412 | 0.486 | 0.476 | 0.498 | 0.566 | 0.534 | 0.436 | 0.442 | 0.208 | 0.203 | 0.217 | 0.21 | 0.201 | 0.675 | 0.585 | 0.522 | 0.973 | 0.571 |
| NCI-H460 | 1.03 | 1.05 | 0.778 | 1.55 | 1.5 | 0.727 | 0.645 | 0.63 | 0.749 | 0.615 | 0.431 | 0.528 | 0.441 | 0.563 | 0.559 | 0.409 | 0.431 | 0.387 | 0.479 | 0.334 |
| NCI-H596 | 0.969 | 0.995 | 1.04 | 1.05 | 1 | 0.924 | 0.902 | 1.14 | 1.11 | 1.05 | 0.954 | 1.02 | 1.12 | 0.966 | 0.993 | 0.668 | 0.711 | 0.77 | 0.716 | 0.604 |
| NCI-H647 | 1.22 | 1.11 | 1.09 | 1.26 | 1.26 | 0.542 | 0.455 | 0.423 | 0.252 | 0.373 | 0.369 | 0.438 | 0.446 | 0.388 | 0.444 | 0.521 | 0.531 | 0.591 | 0.626 | 0.602 |
| NCI-H650 | 0.894 | 0.862 | – | 0.892 | 1.09 | 1.07 | 1.05 | 0.924 | 0.956 | 0.986 | 0.347 | 0.31 | 0.361 | 0.31 | 0.307 | 0.423 | 0.364 | 0.326 | 0.374 | 0.315 |
| NCI-H727 | 0.893 | 0.842 | 0.699 | 0.814 | 0.931 | 0.845 | 0.698 | 0.655 | 0.599 | 0.523 | 1.02 | 0.93 | 0.839 | 0.829 | 0.693 | 0.738 | 0.673 | 0.653 | 0.73 | 0.629 |
| NCI-H838 | 1.07 | 1.02 | 1.03 | 0.923 | 1.12 | 0.963 | 0.943 | 0.916 | 0.968 | 1.03 | 0.472 | 0.458 | 0.437 | 0.429 | 0.452 | 0.783 | 0.801 | 0.804 | 0.803 | 0.809 |
| NCI-H1355 | 1.03 | 0.88 | 1.02 | 0.887 | 1.06 | 0.747 | 0.795 | 0.679 | 0.72 | 0.81 | 0.319 | 0.344 | 0.369 | 0.371 | 0.338 | 0.796 | 0.685 | 0.661 | 0.709 | 0.782 |
| NCI-H1395 | 1.25 | 1.09 | 0.907 | 0.877 | 0.955 | 0.393 | 0.465 | 0.419 | 0.375 | 0.426 | 0.665 | 0.68 | 0.741 | 0.763 | 0.704 | 0.46 | 0.467 | 0.471 | 0.512 | 0.423 |
| NCI-H1437 | 0.833 | 1.05 | 0.885 | 0.758 | 0.845 | 1.13 | 1.15 | 1.08 | 1.14 | 1.14 | 0.56 | 0.617 | 0.587 | 0.562 | 0.636 | 0.604 | 0.665 | 0.65 | 0.653 | 0.652 |
